Laboratory results from patent US9403806B1, “Cognition enhancing compounds and compositions, methods of making, and methods of treating” (NeuroSolis, Inc., priority 2010, dated 2016).
Counter-ions that a name gives are not always drawn. Blank lines part the entries; values can stand above or below the molecule they belong to.

Columns and labels:
[1] = target: T1, human muscarinic M3 receptors (Homo sapiens, UniProt P20309); assay: IP production in A9L cells with human M3 receptors (IPOne TR-FRET), Example 28; format: cell-based; conditions: for huM3/A9L Smax: percentage of maximal stimulation by carbachol; for huM3/A9L ED50 relative to CCh*: potency relative to carbachol at its EC50, semi-quantitative
T1 construct: host or cells: A9L cells
T1 sequence (P20309 whole entry): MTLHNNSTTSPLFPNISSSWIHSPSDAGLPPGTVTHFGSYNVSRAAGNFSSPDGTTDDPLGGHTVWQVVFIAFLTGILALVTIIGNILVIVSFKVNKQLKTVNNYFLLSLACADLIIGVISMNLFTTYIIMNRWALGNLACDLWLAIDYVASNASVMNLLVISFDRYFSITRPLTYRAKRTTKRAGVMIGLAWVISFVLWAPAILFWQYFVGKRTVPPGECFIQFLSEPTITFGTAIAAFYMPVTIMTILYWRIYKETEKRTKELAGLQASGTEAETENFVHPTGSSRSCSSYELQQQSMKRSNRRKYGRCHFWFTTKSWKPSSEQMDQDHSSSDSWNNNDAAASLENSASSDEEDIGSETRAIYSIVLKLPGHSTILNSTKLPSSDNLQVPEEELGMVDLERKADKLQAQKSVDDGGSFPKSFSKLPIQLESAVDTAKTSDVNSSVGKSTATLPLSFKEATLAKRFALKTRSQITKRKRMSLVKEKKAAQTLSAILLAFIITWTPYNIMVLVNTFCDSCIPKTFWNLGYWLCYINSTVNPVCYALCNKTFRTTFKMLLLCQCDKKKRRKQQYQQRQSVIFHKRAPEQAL
Procedure: (§1) Muscarinic M1 and M3 agonist activity was evaluated by measuring the stimulation of inositol phosphate (IP) production in the presence of lithium chloride from A9L cells transfected with expression plasmids containing human muscarinic M1 and M3 receptors, respectively. The cell lines were a gift from Professor W Messer, and the methods were as described in Tejada F R et al. J. Med. Chem. 2006; 49: 7518-31 except that the assay was scaled down to run in 384 well plates, and IP was measured in the cell lysates using the non-isotopic IPOne TR-FRET assay (CIS-BIO, Inc).
(§2) Cells were grown to 90% confluence in 384 well hi-base plates (Greiner Bio-One), compounds were added at suitable concentrations in growth medium containing 10 mM LiCl, buffered with an extra 10 mM HEPES (pH7.4), and incubated for 60 minutes at 37° C. Cells were lysed and assayed for IP following the manufacturer's instructions.
(§3) The value for a full agonist is 100%, while partial agonists give values below 100%.

[2] = target: T2, human muscarinic M1 receptors (Homo sapiens, UniProt P11229); assay: IP production in A9L cells with human M1 receptors (IPOne TR-FRET), Example 28; format: cell-based; conditions: for huM1/A9L Smax: percentage of maximal stimulation by carbachol; for huM1/A9L ED50 relative to CCh*: potency relative to carbachol at its EC50, semi-quantitative
T2 construct: host or cells: A9L cells
T2 sequence (P11229 1-460): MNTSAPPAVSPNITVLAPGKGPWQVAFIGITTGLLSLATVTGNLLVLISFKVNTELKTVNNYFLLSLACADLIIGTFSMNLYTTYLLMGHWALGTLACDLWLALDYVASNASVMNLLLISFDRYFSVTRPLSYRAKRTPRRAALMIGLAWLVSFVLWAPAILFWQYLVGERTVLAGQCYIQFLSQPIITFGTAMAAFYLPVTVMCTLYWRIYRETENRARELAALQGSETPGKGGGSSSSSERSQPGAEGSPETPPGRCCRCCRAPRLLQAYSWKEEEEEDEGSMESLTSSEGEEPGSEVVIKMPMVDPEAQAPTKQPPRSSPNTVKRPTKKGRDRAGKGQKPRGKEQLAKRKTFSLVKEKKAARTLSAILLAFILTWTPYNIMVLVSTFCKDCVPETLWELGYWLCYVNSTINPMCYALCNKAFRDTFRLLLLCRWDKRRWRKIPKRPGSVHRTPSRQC
Procedure: as §1, §2, §3

[3] = Metabolites in serum and urine of dosed rats (LC-MS); format: in vivo; conditions: rat serum or urine, 10 mg/kg po
Procedure: Oxadiazoles disclosed herein as well as other oxadiazoles were investigated to determine the formation of metabolites. Animals were dosed, blood taken, serum prepared, serum proteins precipitated and ultrafiltrates prepared as described in Example 6. In separate experiments, urine was collected from rats for 16-24 hours after dosing, using standard metabolic cages. The urine container and collected urine were maintained at 4° C. Urine was lyophilized, taken back into water. The uftrafiltrate was prepared by adding formic acid to a final concentration of 1% to the urine samples, then filtered through a 0.2 um nylon membrane. The ultrafiltrate was subjected to LC-MS analysis. Instead of measuring the product ions in Q3, manual Q1 scans of the liquid chromatograph were undertaken, seeking parent ions of potential metabolites of the compounds. The criteria for identifying metabolites were as follows: (1) the ion should be present in the sera or urines of dosed rats, but not in sera or urines from non-dosed rats (2) the ion should be identifiable as a metabolic derivative of the dosed compound (e.g. loss of a functional chemical moiety, addition of a hydroxyl group or a glucuronic acid moiety, etc). Metabolites were determined not to be present if no compound meeting the above criteria could be detected in serum or urine.

[4] = Blood and brain concentrations (rats), oral gavage; format: in vivo, Long-Evans Hooded rats; conditions: rat, 10 mg/kg po, 1 hr, relative to MCD-386 = 1.00
Procedure: Long-Evans Hooded rats (Charles River: male, 250-350 g) were dosed with solutions of test compounds in PBS by oral gavage. At the desired time after dosing, the animals were anesthetized with isoflurane, and then euthanized by cervical dislocation. Blood was obtained by cardiac puncture, transferred to a 1.5 mL microcentrifuge tube containing 15U Heparin, and the plasma recovered after centrifugation. Brains were dissected, weighed, immediately chilled to 4° C., and homogenized using a PowerGen 125 homogenizer in five volumes of ice-cold 2% formic acid. Proteins were precipitated from plasma and brain homogenate with two and five volumes respectively of ice-cold 2% formic acid and clarified by centrifugation. The supernatant was ultra-filtered by centrifugation through a 3K MWCO spin column (Pall Life Sciences), following the manufacturer's instructions. The concentration of compound in the ultra-filtrate was subjected to reverse-phase liquid chromatography using a 150×2.1 mm Agilent C8 reverse-phase column on a Shimadzu Prominence LC, eluting the compounds with a gradient of 2% to 50% of acetonitrile+0.1% formic acid for compound MI-50,382, or an isocratic flow of 2% acetonitrile+0.1% formic acid for the rest of the compounds listed. The concentration of the compound in the column effluent was measured using an Applied Biosystems API-3200 triple quadrupole mass spectrometer equipped with an electrospray sample injection system. The counts of the characteristic parent and product ions of each test compound were converted to concentration units by comparison with a standard calibration curve.

[5] = tested on: hippocampal inositol phosphate; assay: In vivo tissue inositol phosphate signaling pathway activation, hippocampus; design: species or system Long Evans Hooded rats; conditions: rat, Compound 3 1 mg/kg; for effect on increase in hippocampal inositol phosphate caused by Compound 3: antagonist 0.03 mg/kg
Procedure: (§4) Experimental compounds or drug substances were administered using standard techniques to Long Evans Hooded rats weighing 225 to 350 grams, and which had been pretreated with a subcutaneous injection of lithium chloride at a suitable dose between 3 and 10 mmoles per kg. At suitable times the animals were briefly anesthetized using 5% isoflurane and euthanized by decapitation. The brains and submaxillary salivary glands were rapidly dissected out, and the hippocampuses were dissected from the brains. The dissected tissues were homogenized in a suitable volume of ice-cold phosphate-buffered saline containing 10 mM lithium chloride, pH7.4, using a tissue homogenizer, and used immediately or frozen in aliquots at −80 deg C. for future use. The concentration of inositol-1-phosphate was determined in the homogenates using the IPOne TR-FRET assay (CisBio cat no 621PAPEB), following the manufacturer's instruction

anesthetized normal rats = assay: In vivo measurement of salivation; design: species or system Long Evans Hooded rats; conditions: rats
Procedure: Suitable doses of test compounds or drug substances were administered using standard techniques to Long Evans Hooded rats weighing 225 to 350 grams, or CD-1 mice weighing 30 to 50 grams, which had been anesthetized using 2-3.5%% of isoflurane in oxygen. The animals were placed slightly head-down on an inclined, heated ramp. Rectal temperature was monitored using a thermocouple and the temperature of the heating pad was adjusted manually to maintain normal body temperature. Saliva was collected from the mouth by absorption onto pre-weighed slips of filter paper. The filter paper was changed periodically and the amount of saliva was measured by weighing the filter paper slips

[6] = tested on: salivary gland inositol phosphate; assay: In vivo tissue inositol phosphate signaling pathway activation, salivary gland; design: species or system Long Evans Hooded rats; conditions: rat; for block of increase in salivary gland inositol phosphate caused by Compound 3: Compound 3 1 mg/kg; for inhibition of salivary gland inositol phosphate response to MCD-386: MCD-386 50 mg/kg, antagonist 0.3 mg/kg (FIG. 7)
Procedure: as §4

anesthetized rats = assay: Salivation after iontophoretic transdermal co-delivery of agonist and antagonist; format: in vivo, Long Evans Hooded rats; conditions: anesthetized rat, one patch with 1 mg Compound 3 plus 0.01 mg antagonist
Procedure: Experimental compounds and drug substances were delivered transdermally in rats using iontophoresis as follows. The fur was shaved from the backs of Long Evans Hooded rats weighing 225 to 325 grams, using electric clippers. Experimental compounds and drug substances were formulated at suitable concentrations an aqueous mixture of the following composition:
The polyvinyl alcohol/water was heated to 95 deg C. until it became clear, then the other constituents were added and mixed well. The mixture was introduced into suitable molds containing a disc-shaped cavity 2.2 cm diameter and 2.2 mm deep. Molds may be fabricated using two glass sheets separated by a silicone rubber sheet with suitable sized cavities and filling ports cut-outs. The molds were subject to 3 freeze-thaw cycles at −80 deg C. and 20 deg C. until a firm cryogel was obtained. The gels were separated from the molds and trimmed into a circular shape. The gel was placed in a silicone rubber casing with one face in contact with a circular silver foil anodic electrode (22 mm dia/250 microns thick), and the assembly was placed on the shaved skin of the rat such that the other face was in contact with the skin on one side of the back of the rat. The rubber casing formed a seal over and around the gel/electrode assembly. […] This was placed on the other side of the shaved back of the rat, the edges of the gel discs being about 20 mm apart at their nearest point. A DC voltage was applied across the two patches from a constant-current DC power supply and the voltage adjusted to obtain the desired current, such that the skin of the animal completed the electrical circuit.
The devices were placed on shaved backs of anesthetized rats and salivation was measured.
The animals were placed slightly head-down on an inclined, heated ramp. Rectal temperature was monitored using a thermocouple and the temperature of the heating pad was adjusted manually to maintain normal body temperature. Saliva was collected from the mouth by absorption onto pre-weighed slips of filter paper. The filter paper was changed periodically and the amount of saliva was measured by weighing the filter paper slips

human FMO1 Supersomes = target: T3, human FMO1 Supersomes (Homo sapiens, UniProt Q01740); assay: Metabolism by flavin monoxygenase 1 (FMO1) Supersomes; format: in vitro ADME; conditions: after 6 hours (FIG. 2)
T3 construct: purchased BD Biosciences 456241
T3 sequence (Q01740 1-532): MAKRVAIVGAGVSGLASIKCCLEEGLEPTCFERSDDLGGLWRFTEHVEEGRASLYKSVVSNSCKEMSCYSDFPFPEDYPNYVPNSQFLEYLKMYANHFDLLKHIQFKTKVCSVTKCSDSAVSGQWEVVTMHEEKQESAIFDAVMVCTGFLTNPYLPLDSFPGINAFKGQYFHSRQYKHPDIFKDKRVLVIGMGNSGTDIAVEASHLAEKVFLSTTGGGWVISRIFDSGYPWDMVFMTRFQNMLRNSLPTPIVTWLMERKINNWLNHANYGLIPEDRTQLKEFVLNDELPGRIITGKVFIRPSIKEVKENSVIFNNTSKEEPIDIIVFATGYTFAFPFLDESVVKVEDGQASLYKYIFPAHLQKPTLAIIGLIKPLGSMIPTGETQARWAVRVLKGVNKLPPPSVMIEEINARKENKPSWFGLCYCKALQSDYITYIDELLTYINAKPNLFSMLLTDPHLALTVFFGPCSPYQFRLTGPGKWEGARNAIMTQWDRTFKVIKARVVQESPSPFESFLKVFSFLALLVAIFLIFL
Procedure: […] Aliquots were removed every 10 minutes, and 1% formic acid was added to halt the reaction. Samples were centrifuged, filtered through 0.2 micron spinfilter and the amount of each compound in the supernatants was quantitated using LC/MS/MS.

[7] = antagonist 0.03 mg/kg (FIGS. 8C, 8D)

Papp (PAMPA test, Example 34; PAMPA): 16.3 ×10⁻⁶ cm/s | huM3/A9L Smax [1]: 70% | huM3/A9L ED50 relative to CCh* [1]: −− (−− potency <0.1x CCh) | huM1/A9L Smax [2]: 81% | huM1/A9L ED50 relative to CCh* [2]: − (− potency <0.5-0.1x CCh)
Molecule: Cc1noc(C2(F)CCCNC2)n1 (stereo not shown) [Compound 35, 5-(3-fluoropiperidin-3-yl)-3-methyl-1,2,4-oxadiazole]

Presence of metabolites (10 mg/kg po) [3]: No | Brain Cmax (10 mg/kg po) 1 hr MCD-386 = 1.00 [4]: 0.82
Molecule: [2H]C([2H])(C)c1noc(C2CN=CNC2)n1 (stereo not shown) [Compound 6c, 3-(1,1-d2-ethyl)-5-(1,4,5,6-tetrahydropyrimidin-5-yl)-1,2,4-oxadiazole hydrochloride]

Molecule: C[N+]1(C)[C@@H]2C[C@@H](OC(=O)[C@H](CO)c3ccccc3)C[C@H]1[C@@H]1O[C@@H]12 [NMS]
effect on increase in inositol phosphate in the hippocampus caused by Compound 3 ([5]; antagonist 0.1 mg/kg): does not inhibit | decrease in salivation caused by Compound 3 (anesthetized normal rats; Compound 3 0.3 mg/kg (FIG. 12)): dose-dependent decrease in salivation | reduction in salivation caused by MCD-386 (anesthetized normal rats; MCD-386 1 mg/kg (FIG. 13)): dose-dependent reduction | block of increase in salivary gland inositol phosphate caused by Compound 3 ([6]; antagonist 0.003 mg/kg): some breakthrough activation | block of increase in salivary gland inositol phosphate caused by Compound 3 ([6]; antagonist 0.03 mg/kg to 0.01 mg/kg): nearly as effective as 0.1 mg/kg | block of increase in salivary gland inositol phosphate caused by Compound 3 ([6]; antagonist 0.1 mg/kg (FIGS. 8A, 8B)): completely block | reduction of salivation caused by transdermal iontophoretic delivery of Compound 3 (anesthetized rats): greatly reduced

Molecule: 3-methyl-5-(quinuclidin-3-yl)-1,2,4-oxadiazole [Compound 37]
PAMPA Permeability Coefficient (×10^6) (PAMPA test, Example 34; Table 14): 3.02 ×10^6 | huM3/A9L Smax [1]: 50-100% | huM3/A9L ED50 relative to CCh* [1]: ++ (++ potency >10x CCh) | extent of metabolism in FMO Supersomes (in words) (human FMO1 Supersomes): almost completely metabolized | selectivity between M1 and M3 receptors ([2]; huM1 versus huM3 A9L cells): essentially non-selective between M1 and M3 receptors | huM1/A9L Smax [2]: 50-100% | huM1/A9L ED50 relative to CCh* [2]: ++ (++ potency >10x CCh)

Molecule: CC(C)[N+](C)(CCOC(=O)C1c2ccccc2Oc2ccccc21)C(C)C [propantheline]
effect on increase in hippocampal inositol phosphate caused by Compound 3 [5]: without blocking the increase in hippocampal inositol phosphate | block of increase in salivary gland inositol phosphate caused by Compound 3 [6, 7]: can block | inhibition of salivary gland inositol phosphate response to MCD-386 [6]: virtually completed inhibited | reduction of salivation caused by transdermal iontophoretic delivery of Compound 3 (anesthetized rats): greatly reduced

Presence of metabolites (10 mg/kg po) [3]: No | Brain Cmax (10 mg/kg po) 1 hr MCD-386 = 1.00 [4]: 0.61
Molecule: [2H]C([2H])([2H])C([2H])([2H])c1noc(C2CN=CNC2)n1 (stereo not shown) [Compound 2c, 3-(1,1,2,2,2-d5-ethyl)-5-(1,4,5,6-tetrahydropyrimidin-5-yl)-1,2,4-oxadiazole hydrochloride]

Molecule: C[N+]1(C)CCC(OC(=O)C(O)(c2ccccc2)C2CCCC2)C1 (stereo not shown) [glycopyrrolate]
effect on increase in hippocampal inositol phosphate caused by Compound 3 [5]: without blocking the increase in hippocampal inositol phosphate | block of increase in salivary gland inositol phosphate caused by Compound 3 [6, 7]: can block | inhibition of salivary gland inositol phosphate response to MCD-386 [6]: virtually completed inhibited | reduction of salivation caused by transdermal iontophoretic delivery of Compound 3 (anesthetized rats): greatly reduced
